The subject of assay [1] is 3T3 L1 fibroblasts. Nature of the assay: Glucose transport activity (14C-2-deoxy-D-glucose uptake). The format is cell-based. The following applies: concentration producing increase in glucose transport that is 50% of the response of 100 nM insulin (5.6 nM insulin as lower bound), tested 1 μM to 56 μM. The method, then: 3T3 L1 fibroblasts (ATCC) were grown in Dulbecco's modified Eagle's medium (DMEM) with 10% fetal bovine serum (FBS). The cells were plated at a density of 3×10^4 cells/well in 24-well plates. Two days after confluence was reached, the cells were treated for 3 days with 0.5 mM isobutylmethylxanthine (IBMX), 1 μM dexamethasone, and 1.7 μM insulin. The cells were then transferred to DMEM with 1.7 μM insulin for 2 more days. The cells were maintained in DMEM with 10% FBS for an additional 4 days. Finally, the cells were serum-starved overnight in 0. 1% bovine serum albumin (BSA) in DMEM. The following day, the medium was replaced with 150 mM NaCl, 1.7 mM KCl, 0.9 mM CaCl2, K2HPO4 (pH 7.4), to which was added either the experimental compound or its vehicle (DMSO). Insulin or its vehicle (0.01% BSA) was diluted in the assay buffer (containing test compound or vehicle, respectively) to a final concentration of 5.6 nM. After incubation for 30 min at 37° C., 5 μCi/ml ^14C-2-deoxy-D-glucose was added, and the incubation was continued for an additional 30 min at 37° C. The cells were then washed 3 times with ice-cold PBS/20 mM glucose and lysed in 250 μl of lysis buffer (50 mM HEPES pH 7.6, 1% Triton X-100) for 30 min at room temperature. Radioactivity in the lysate was quantified by scintillation counting.
Once ^14C-2-deoxy-D-glucose is transported into the cell, it is not released. Glucose transport is, therefore, proportional to the amount of radioactivity in the lysate. […] The concentration of compound necessary to produce an increase in glucose transport that is 50% of the response of 100 nM insulin (using 5.6 nM insulin as the lower bound) was calculated as the EC50 (effective concentration).

In assay [2] the target is T1, complete β-kinase domain of the human insulin receptor (CKD) (Homo sapiens, UniProt P06213).
T1 construct: The complete β-kinase domain of the human insulin receptor (CKD); made in house
Nature of the assay: 32P-CKD autophosphorylation assay. The following applies: compound at 10 μM, phosphorylation of CKD expressed as % of the vehicle level; for activity at 10 µM: 10 min, read-out: Activity (% vs. control). The format is biochemical. The method, then: The complete β-kinase domain of the human insulin receptor (CKD) was expressed in, and purified from, baculovirus. CKD (4.0 μg/ml), in a solution of 29 mM HEPES (pH 7.6), 0.05% Triton X-100, 10 mM MgCl2, 2 mM MnCl2 (50 μl final volume), is combined with 50 μM ATP, and 5 μCi ^32P-ATP (3000 Ci/mmol).

T1 sequence (P06213 1023-1298 limits assumed): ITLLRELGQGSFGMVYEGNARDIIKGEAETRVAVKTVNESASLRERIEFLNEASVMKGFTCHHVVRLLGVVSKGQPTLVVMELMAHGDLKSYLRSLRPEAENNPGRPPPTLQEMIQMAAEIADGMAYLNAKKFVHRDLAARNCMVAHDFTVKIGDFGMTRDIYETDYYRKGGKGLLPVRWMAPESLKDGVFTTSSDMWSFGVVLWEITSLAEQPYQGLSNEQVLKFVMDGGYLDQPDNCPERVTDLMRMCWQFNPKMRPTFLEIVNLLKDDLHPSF

With “5-((1E)-2-phenylvinyl)-2-({4-[(4-carboxyphenyl)-N-methylcarbonylamnino]phenyl}-N-methylcarbonylamino)benzoic acid [Compound 20]”, the EC50 (usually the concentration needed to bring the measured effect to its halfway point) in assay [1] came out at 109 µM. The “Activity (% vs. control)” value in assay [2] is given as 112%.
`O=C(O)Cc1ccc(/C=C/c2ccc(NC(=O)c3ccccc3C(=O)O)cc2)cc1` [Compound 24, 2-[N-(4-{(1E)-2-[4-(carboxymethyl)phenyl]vinyl}phenyl)carbamoyl]benzoic acid] had an EC50 in assay [1] (Mus musculus, 3T3-L1) of 414 µM. In addition, the activity at 10 µM in assay [2] is 126%.
In turn, `CNc1ccc(C(=O)Nc2ccc(/C=C/c3ccc(C(=O)O)cc3)cc2C(=O)O)cc1` [Compound 23, 5-[(1E)-2-(4-carboxyphenyl)vinyl]-2-{[4-(methylamino)phenyl]carbonylamino}-benzoic acid] returned an EC50 in assay [1] (Mus musculus, 3T3-L1) of 98 µM. Further, the activity at 10 µM in assay [2] is 112%.

(Values after patent US6479548B2, “Substituted stilbenes as glucose uptake enhancers” (Telik, Inc., priority 2000, dated 2002).)
